Results published in PMC11697113, “The Hsc70 system maintains the synaptic SNARE protein SNAP-25 in an assembly-competent state and delays its aggregation [drawing 1]” (The Journal of Biological Chemistry, 2024).

Target: T1, Hsc70 (Homo sapiens, UniProt P11142)
T1 construct: 6X His-tag (TEV-cleavable) (cleaved yes); made in house; host or cells: E. coli Rosetta (DE3)
Assay: Competition binding vs FITC-p5 by fluorescence anisotropy
Settings: Hsc70 5 μM, FITC-p5 50 nM, competitor 0 to 200 μM, phosphate buffer pH 7.4, overnight 4 °C, three independent experiments; for relative affinity for Hsc70: fluorescence anisotropy, comparator LOOPP
Description: Figure 3 Hsc70 forms complexes with SNAP-25.A, native PAGE of SNAP-25 (10 μM) in the presence and absence of Hsc70 (2 μM). The difference in signal intensity of His-SNAP25 probed with antibody is likely due to altered epitope exposure upon formation of the SNAP-25-Hsc70 complex. B, binding of SNAP-25 (black), SNAP-25 SNN (SNNFR, orange), and SNC (SNCFR, green)) fragments to Hsc70 by competition followed by fluorescence anisotropy. Increasing concentrations of the competitors were added to a complex of Hsc70 (5 μM) and FITC-p5 peptide (50 nM). Error bars represent SDs from three independent experiments.
To pin down the regions in SNAP-25 where Hsc70 binds we expressed the individual SNN and SNC fragments of SNAP-25 and tested their ability to compete for Hsc70 binding to an FITC-labeled p5 peptide (ALLLSAPRR).
Figure 5 SNN and SNC peptides interact with the canonical substrate-binding site of Hsc70.A, ATPase activity of Hsc70 (2 μM) in the absence (gray) and presence of 200 μM SNNP (orange) and SNCP (green) peptides. Error bars represent the SDs from three independent experiments. B, binding of SNAP-25 (black), SNNP (orange), LoopP (blue), and SNCP (green) peptides to Hsc70 followed by competition for FITC-p5 peptide using fluorescence anisotropy. Increasing concentrations of the competitors were added to a complex of Hsc70 (5 μM) and FITC-p5 peptide (50 nM). Error bars represent SDs from three independent experiments. C, structure of the canonical substrate-binding site of human HspA1 (PDB 4po2) illustrating the location of Hsc70 residues Ile 403 and Ile 440 in red and green spheres, respectively (N.B., Hsc70 and HspA1 share […] sequence identity). The SBD is shown in gray, bound substrate in cyan sticks, and the side chain of the residue occupying the 0th position in the chaperone (“anchor residue”) in orange ball and sticks. For better visualization of the substrate-binding site, residues 512 to 613, 405 to 408, and 431 were removed in this illustration of the structure. D, the Ile region of the ^1H-^13 C HMQC spectra of Ile-^13CH3-labeled Hsc70 (40 μM) in the absence (black) and in the presence of unlabeled SNNP (orange) and SNCP (green) peptides (200 μM).
To further characterize the binding of the SNAP-25 peptides to Hsc70 we used competition assays as above. Peptides SNNP, LOOPP, and SNCP were titrated against the protein-peptide complex of Hsc70 and FITC-p5 and fluorescence anisotropy was monitored to assess how well the SNAP-25 peptides displaced the model peptide.
Direct binding between the p5 peptide (QSRLLLSAPRRAA) and Hsc70 was carried out as described previously ([52]). […] Fluorescence anisotropy was measured in a BioTek plate reader (BioTek) with excitation at 485 nm and emission at 516 nm.
The measured anisotropy values were converted to fraction bound (fb) using the equation: fb=(r−r0)/(rb−r0) where r is the anisotropy value at any point, r0 is the anisotropy value of FITC-p5 in the absence of Hsc70, and rb is the anisotropy value of FITC-p5 when fully bound to Hsc70. […]
For competition assays, the concentrations of Hsc70 and FITC-P5 were kept constant at 5 μM and 50 nM, respectively, and the competitor substrate was titrated from 0 to 200 μM in phosphate buffer. […] Fluorescent anisotropy was measured as described above. […]

T1 sequence (P11142 whole entry): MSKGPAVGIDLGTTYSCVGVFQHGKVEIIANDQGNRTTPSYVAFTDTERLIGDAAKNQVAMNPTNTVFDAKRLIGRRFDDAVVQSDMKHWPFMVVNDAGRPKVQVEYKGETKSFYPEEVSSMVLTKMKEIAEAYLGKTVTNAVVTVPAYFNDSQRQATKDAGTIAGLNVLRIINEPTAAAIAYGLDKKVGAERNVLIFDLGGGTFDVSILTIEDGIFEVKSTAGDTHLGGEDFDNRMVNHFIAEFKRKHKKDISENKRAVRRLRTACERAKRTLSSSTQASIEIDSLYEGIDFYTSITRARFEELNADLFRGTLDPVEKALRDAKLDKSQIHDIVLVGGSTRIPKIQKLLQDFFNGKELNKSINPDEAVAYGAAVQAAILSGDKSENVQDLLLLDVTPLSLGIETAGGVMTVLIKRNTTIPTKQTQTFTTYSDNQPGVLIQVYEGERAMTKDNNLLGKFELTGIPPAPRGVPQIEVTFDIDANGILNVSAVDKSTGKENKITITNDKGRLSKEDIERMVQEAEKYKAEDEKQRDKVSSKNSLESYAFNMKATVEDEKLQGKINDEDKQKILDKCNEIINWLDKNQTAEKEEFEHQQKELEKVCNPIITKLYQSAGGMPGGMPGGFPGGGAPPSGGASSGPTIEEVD

Row | Substance | relative affinity for Hsc70 | competition with p5 peptide for binding to Hsc70 (fluorescence anisotropy 485/516 nm)
1 | EREQMAISGGFIRR [SNCP, peptide … from the LOOP-SNC domain of SNAP-25] | significantly higher affinity than LOOPP | 
2 | RRMLQLVEESK [SNNP, peptide … from the SNN domain of SNAP-25] | significantly higher affinity than LOOPP | 
3 | synaptosomal-associated 25 kDa protein [SNAP-25] |  | competed with p5 peptide for binding to Hsc70
